Among the data in patent publication US20240325326A1, “METHOD OF TREATING PULMONARY FIBROSIS BY TARGETING GLYCOGEN UTILIZATION” (University of Kentucky Research Foundation, priority 2023, published 2024) are fibrosis-related gene expression values, retold here.

Entries after “also recorded” stand apart in the source; their conditions may differ.

The assay concerns diseased human lung fibroblasts (DHLF). Briefly: Fibrosis-related gene expression (Bio-rad Prime PCR Fibrosis gene panel) in human lung fibroblasts treated for two days with a laforin inhibitor. The class given is cell-based. Particulars: NHLF or DHLF derived from idiopathic pulmonary fibrosis patients; treated two days vs vehicle control; mRNA; n=3 samples per condition; FIG. 14. On the procedure: Normal human lung fibroblasts (NHLF) or diseased human lung fibroblasts (DHLF) derived from idiopathic pulmonary fibrosis patients were treated for two days with a laforin inhibitor (or vehicle control) before harvesting mRNA and assessing gene expression. Samples were run on Bio-rad Prime PCR Fibrosis gene panel plates with n=3 samples per condition. *p<0.05, ***p<0.001 two-tailed student's t-test.
Normal human lung fibroblasts (NHLF) or diseased human lung fibroblasts (DHLF) derived from idiopathic pulmonary fibrosis patients were treated for two days with a laforin inhibitor (or vehicle control). […] Following treatment, mRNA was harvested from the cells and gene expression was assessed.

As to `O=C(Nc1ccc(OCc2ccccc2)c(Cl)c1)C(=O)Nc1ccccc1NC(=O)C(c1ccccc1)S(=O)(=O)O` (stereo not shown) [L319-21-M50], the fibrosis-related gene expression result is “disease-specific expression patterns being rescued by laforin inhibition; also recorded: decreases fibrosis-related gene expression in diseased human lung fibroblasts”.
